The nature of data set [1]: LD50 acute toxicity, ddy mice, single abdominal injection. Particulars: mouse, in vivo, ip, 5 ddy mice, 14 days observation, Behrens-Koerber's method. The text has this:
(§1) As used herein, the term "LD50 " denotes the acute toxicity. The term "ED50 " denotes the administered amount needed for reducing the volume of Sarcoma 180 solid tumours in animals to 50% of the corresponding tumour volume in control (untreated) animals. The term "WBC4000 " denotes the minimum dose of the drug needed to reduce the number of peripheral leucocytes to 4000/mm^3. A greater TI value results in a broader tolerance to the drug, which is advantageous for higher anti-tumour activity and decreased toxicity. The term "T" used herein denotes the average survival days of the test animals administered with the test compound. The term "C" denotes the average survival days of the control (untreated) animals. The term "OPD" denotes the dose of the drug resulting in the highest survival ratio. The term "ILS30 " denotes a 30% increase of life-span.
LD50, ED50 and WBC4000 were respectively determined as follows:
Each animal of the test group, consisting of 5 ddy mice, was administered once with a test compound by abdominal injection. […] To determine the LD50 value, Behrens-Koerber's method was applied.

A further data set deals with Sarcoma 180 solid tumour. The data set can be described thus: ED50 against Sarcoma 180 solid tumour implanted in mice. The conditions noted are these: for (CI)c: (CI of test compound)/(CI of mitomycin C), CI = LD50/ED50; for ED50: Mus musculus, Sarcoma-180, iv, 168 h, i.v. (tail vein) 24 h after implantation, tumour volume at 7 days, dose for T/C of 0.5. In kind it is in vivo, male mouse (ddy strain).
Source text: With regard to the so-called chemotherapeutic index viz. the CI value against sarcoma 180 solid tumour, expressed by the formula: […]
as §1
the term (CI)c denotes (CI of the test compound)/(CI of mitomycin C), and
5×10^6 sarcoma 180 solid tumor cells were abdominally implanted into ddy mice. 7 days after this, ascites cells were sampled. The cells were washed once with a sterilized physiological saline and were used to prepare a cell suspension containing 5×10^7 cells per ml of a sterilized physiological saline. On each occasion, 0.1 ml of the cell suspension was subcutaneously implanted under the skin of the right armpit of a male mouse (ddy strain; body weight 20±2 g). The test compound which was dissolved in a physiological saline with or without addition of Tween 80 was injected into the tail vein of each animal of a group consisting of 5 mice at a dose of 0.1-0.2 ml 24 hours after the implantation of the tumor cells.
The anti-tumor activity was determined in the following manner:
7 days after the implantation, the major axis (a) and the minor axis (b) of the tumour were measured to calculate a value of (a×b^2)/2 which corresponds to the volume of the tumour. The antitumour activity was expressed by the ratio of the volume of the tumour (T) of the group of animals administered with the test compound to the corresponding volume of tumours (C) of the untreated animals.
On graph paper, T/C was plotted on the ordinate using an arithmetic scale and the administered amount of test compound was plotted on the abscissa using a logarithmic scale. The relationship between the dose and T/C was shown by a straight line determined by the method of least squares, from which ED50 viz. a dose corresponding to T/C of 0.5 was obtained.

Data set [2] deals with lymphocytic Leukemia P-388. The data set can be described thus: Anti-tumour activity against lymphocytic Leukemia P-388 in mice. The class given is in vivo, mouse, female of CDF strain. Particulars: for (ILSmax)c: (ILSmax of test compound)/(ILSmax of mitomycin C), ILS=(T-C)/C×100; for (TI)c: (TI of test compound)/(TI of mitomycin C), TI = OPD/dose which results in ILS30; for ED (optimal dose, highest survival) / ED (30% increase of life-span): Mus musculus, P388, ip, i.p. 24 h after implantation; for ED (optimal dose, highest survival): dose resulting in the highest survival ratio, 30 days, read-out: OPD; for ED (30% increase of life-span): read-out: Dose needed to give ILS30.
Source text: Also, their therapeutic indexes, expressed by the formula:
TI=(OPD)/(dose which results in ILS30),
against lymphocytic Leukemia P-388 and the maximum increased life spans (ILSmax), defined by the formula: […]
as §1
The experiment was carried out in the following manner. 1×10^6 lymphocytic Leukemia P-388 tumour cells were abdominally implanted into each mouse of a group consisting of 5 mice (body weight about 22 g; female of CDF strain). 24 hours after implantation, a physiological saline solution (0.2 ml) containing the test compound with or without addition of Tween 80 was abdominally given to the test animal.
Table 7 indicates anti-tumour activities of selected Compounds (I) against lyphocytic Leukemia P-388.

Another data set concerns tumour. Particulars: background statement; cited from earlier work.
The next data set has as its system bone marrow. Particulars: background statement; cited from earlier work.

Usually LD50 stands for the dose expected to kill half of the subjects tested. A high value points to lower toxicity. For orientation: ED50 means the midpoint of the dose-response relation. High values mean weaker potency, low ones greater potency. Compound `CO[C@@]12[C@H](COC(N)=O)C3=C(C(=O)C(C)=C(NCCSC(=O)N4CCC[C@H]4C(=O)NCc4ccccc4)C3=O)N1C[C@@H]1N[C@@H]12` [Compound 14, 7-N--[2-((S)--2-benzylaminocarbonylpyrrolidino)-carbonylthioethyl]mitomycin C] displayed an LD50 at 336 h in data set [1] of 75 mg/kg. Further, in the data set with Sarcoma 180 solid tumour, the “(CI)c” value is listed as 2.23 and it took a dose of 13.6 mg/kg to reach the 50% effect level (ED50). For the same compound, in data set [2], the “(ILSmax)c” value is 1.44; the “(TI)c” value is 0.93; the ED (optimal dose, highest survival) amounted to 50 mg/kg; the ED (30% increase of life-span) was found to be 3.46 mg/kg.
`CO[C@@]12[C@H](COC(N)=O)C3=C(C(=O)C(C)=C(NCCSC(=O)NCc4ccccc4)C3=O)N1C[C@@H]1N[C@@H]12` [Compound 22, 7-N--(2-benzylaminocarbonylthioethyl)mitomycin C] came in with an LD50 at 336 h in data set [1] of 37.5 mg/kg. Besides, in the data set on Sarcoma 180 solid tumour, the “(CI)c” value is on record as 1.44 and the 50% effective dose (ED50) turned out to be 10.2 mg/kg. In data set [2], the “(ILSmax)c” value came to 1.43; the “(TI)c” value is given as 3.36; the ED (optimal dose, highest survival) stood at 25 mg/kg; the ED (30% increase of life-span) came to 0.62 mg/kg.
As to `CCNC(=O)SCCNC1=C(C)C(=O)C2=C(C1=O)[C@@H](COC(N)=O)[C@@]1(OC)[C@H]3N[C@H]3CN21` [Compound 23, 7-N--(2-ethylaminocarbonylthioethyl)mitomycin C], the LD50 at 336 h in data set [1] is 52.5 mg/kg. Also, in the data set on Sarcoma 180 solid tumour, the “(CI)c” value is on record as 2.48 and the ED50 is 8.3 mg/kg. Besides, in data set [2], the “(ILSmax)c” value amounted to 1.16; the “(TI)c” value is recorded as 3.28~1.64; the ED (optimal dose, highest survival) came out at 25 mg/kg; the ED (30% increase of life-span) was found to be 0.33 mg/kg.
Take `CO[C@@]12[C@H](COC(N)=O)C3=C(C(=O)C(C)=C(NCCSC(=O)NCC(C)C)C3=O)N1C[C@@H]1N[C@@H]12` [Compound 24, 7-N--(2-isobutylaminocarbonylthioethyl)mitomycin C]: in data set [1], the LD50 at 336 h is 22.5 mg/kg. In the data set on Sarcoma 180 solid tumour, the “(CI)c” value came to 0.89 and the 50% effect level (ED50) was put at a dose of 9.9 mg/kg. Further, in data set [2], the “(ILSmax)c” value is 1.26; the “(TI)c” value is 2.16; the ED (optimal dose, highest survival) turned out to be 25 mg/kg; the ED (30% increase of life-span) turned out to be 0.5 mg/kg.
The compound `CCCNC(=O)SCCNC1=C(C)C(=O)C2=C(C1=O)[C@@H](COC(N)=O)[C@@]1(OC)[C@H]3N[C@H]3CN21` [Compound 27, 7-N--(2-n-propylaminocarbonylthioethyl)mitomycin C] had an LD50 at 336 h in data set [1] of 37.5 mg/kg. In the data set with Sarcoma 180 solid tumour, the “(CI)c” value stood at 1.33 and the ED50 amounted to 11.1 mg/kg. In addition, in data set [2], the “(ILSmax)c” value was 1.84; the “(TI)c” value is 3.11; the ED (optimal dose, highest survival) worked out at 25 mg/kg; the ED (30% increase of life-span) came out at 0.67 mg/kg.
Regarding `CO[C@@]12[C@H](COC(N)=O)C3=C(C(=O)C(C)=C(NCCSC(=O)NC4CCCCC4)C3=O)N1C[C@@H]1N[C@@H]12` [Compound 29, 7-N--(2-cyclohexylaminocarbonylthioethyl)mitomycin C], the LD50 at 336 h in data set [1] was determined as 43.8 mg/kg. Besides, in the data set on Sarcoma 180 solid tumour, the “(CI)c” value was determined as 1.43 and the ED50 came to 12 mg/kg. Also, in data set [2], the “(ILSmax)c” value was determined as 1.69; the “(TI)c” value was 2.45; the ED (optimal dose, highest survival) was 25 mg/kg; the ED (30% increase of life-span) was 0.85 mg/kg.
For the compound `CCC(C)NC(=O)SCCNC1=C(C)C(=O)C2=C(C1=O)[C@@H](COC(N)=O)[C@@]1(OC)[C@H]3N[C@H]3CN21` (some centres unmarked) [Compound 30, 7-N--(2-sec-butylaminocarbonylthioethyl)mitomycin C], the LD50 at 336 h in data set [1] amounted to 37.5 mg/kg. Moreover, in the data set on Sarcoma 180 solid tumour, the “(CI)c” value is reported as 1.53 and the ED50 stood at 9.6 mg/kg. In data set [2], the “(ILSmax)c” value is 1.60; the “(TI)c” value was 3.20; the ED (optimal dose, highest survival) was 25 mg/kg; the ED (30% increase of life-span) is 0.65 mg/kg.
For the compound `COC(=O)[C@H]1CCCN1C(=O)SCCNC1=C(C)C(=O)C2=C(C1=O)[C@@H](COC(N)=O)[C@@]1(OC)[C@H]3N[C@H]3CN21` [Compound 32, 7-N--[2-((S)--2-methoxycarbonylpyrrolidino)carbonylthioethyl]mitomycin C], the LD50 at 336 h in data set [1] was determined as 67.5 mg/kg. Also, in the data set on Sarcoma 180 solid tumour, the “(CI)c” value was 1.48 and the ED50 came to 17.9 mg/kg. Further, in data set [2], the “(ILSmax)c” value is listed as 1.40; the “(TI)c” value worked out at 2.14; the ED (optimal dose, highest survival) was 37.5 mg/kg; the ED (30% increase of life-span) amounted to 1.67 mg/kg.
In data set [1], `CCNC(=S)SCCNC1=C(C)C(=O)C2=C(C1=O)[C@@H](COC(N)=O)[C@@]1(OC)[C@H]3N[C@H]3CN21` [Compound 39, 7-N--(2-ethylaminothiocarbonylthioethyl)mitomycin C] registered an LD50 at 336 h of 45 mg/kg. Also, in the data set on Sarcoma 180 solid tumour, the “(CI)c” value amounted to 2.40 and it took a dose of 7.8 mg/kg to reach the 50% effect level (ED50). Moreover, in data set [2], the “(ILSmax)c” value was above 1.60; the “(TI)c” value is given as 2.74; the ED (optimal dose, highest survival) turned out to be 25 mg/kg; the ED (30% increase of life-span) amounted to 0.57 mg/kg.
Consider `CO[C@@]12[C@H](COC(N)=O)C3=C(C(=O)C(C)=C(N)C3=O)N1C[C@@H]1N[C@@H]12` [mitomycin C], for which, in the data set with tumour, the anti-tumour activity entry was “strong anti-tumour activity”. The “toxicity to bone marrow” value in the data set with bone marrow was “strong toxicity to bone marrow”.
